Laboratory results: paper PMC11229374, “Unlocking the potential of protein-derived peptides to target G-quadruplex DNA: from recognition to anticancer activity” (Nucleic Acids Research, 2024)
*: point of attachment. FITC = O=C1OC2(c3ccc(O)cc3Oc3cc(O)ccc32)c2ccc(NC(=S)*)cc21; AEEA = NCCOCCOCC(=O)O

Tests used:
c-KIT2 G4 [1] = assay: CD melting, thermal stabilization of c-KIT2 G4; format: binding, human; settings: for ΔT1/2 of c-KIT2 G4: CD melting at 264 nm, 2 mol equiv of peptide with respect to G4, 2 μM DNA, 5 mM KH2PO4/K2HPO4 pH 7.0, 20 mM KCl, average of three, T1/2 c-KIT2 alone 59.5°C; for ΔΔT1/2, change in c-KIT2 G4-stabilizing properties with respect to Myb^397–415: CD melting, 2 mol equiv peptide, difference to Myb^397–415
Description: The buffer baseline was subtracted from each spectrum.

c-KIT2 G4 [2] = assay: Microscale thermophoresis (MST) binding to c-KIT2 G4; parameters: species or system human; settings: 25°C, 20 nM FITC-labelled peptide, DNA serial dilution, 5 mM KH2PO4/K2HPO4 pH 7.0, 20 mM KCl, 0.1% Tween, 5% DMSO
Method: MST experiments were conducted using a Monolith NT.115 instrument (NanoTemper Technologies, Munich, Germany) at 25°C with medium MST power settings. […] DNA samples were also diluted using the same buffer supplemented with 0.1% Tween. During MST experiments, the concentration of the labelled peptide was kept constant at 20 nM, while a serial dilution of the investigated DNA molecules (ranging from 10 or 20 μM) was prepared and mixed with the peptide solution in a 1:1 volume ratio. All the samples, with a final concentration of 5% DMSO, were loaded into standard capillaries (NanoTemper Technologies) for MST measurements. Data analysis was carried out using the MO.Affinity Analysis (v2.3) software provided with the instrument.

U2OS cells = assay: Viability assay (crystal violet), U2OS; format: cell-based; settings: for Impact on cancer cell viability, peptides in native form: unconjugated peptides
Method: U2OS, HCT116 and MDA-MB-231 cells were purchased from the ATCC and grown in Dulbecco modified Eagle's medium (DMEM; EuroClone, Milan, Italy; ECM0728L) supplemented with 10% Fetal Bovine Serum (FBS, ThermoFisher Scientific/Gibco, Waltham, MA, USA; 10270-106), 2 mM L-glutamine and antibiotics in a humidified incubator at 37°C with 5% CO2 and atmospheric O2 concentration. Cell lines were authenticated and tested to be mycoplasma-free.
U2OS, HCT116, and MDA-MB-231 cells were seeded in 24-well plates at a density of 1 × 10^4, 20 × 10^3 and 12 × 10^3 for each well, respectively. After 24 h, cells were treated with the indicated peptides and incubated at 37°C for additional 72 h. Upon treatment completion, cell medium was removed, the wells were washed twice in phosphate-buffered saline (PBS) and fixed with 4% formaldehyde for 15 min at room temperature (RT). After washing, 500 μl of crystal violet staining solution (Sigma-Aldrich, St. Louis, MO, USA) was added to each well and incubated for 30 min at RT. Finally, the plates were rinsed twice with water, air-dried and cell pellets were dissolved in 400 μl of a 10% aqueous solution of acetic acid. In total, 200 μl of each sample was transferred to a 96-well plate, and the optical density was measured at 570 nm (OD570) with an ELISA reader (Thermo Scientific, Waltham, MA, USA). The average absorbance in each condition was used to calculate the viability expressed as a percentage of treated vs untreated conditions (CTR).

c-KIT2 G4 [3] = assay: Isothermal titration calorimetry (ITC) with c-KIT2 G4; format: binding, human; settings: ITC at 25°C, triplicate; for Ka: c-KIT2 G4 16–20 μM, peptide 280–400 μM, 5 mM KH2PO4/K2HPO4, 20 mM KCl, pH 7.0; for Kd: c-KIT2 G4, Kd = 1/Ka
Method: ITC experiments were conducted at 25°C using a nano-ITC Low Volume calorimeter (TA instruments, Lindon, UT, USA). DNA and peptide solutions were prepared using the same batch of buffer (5 mM KH2PO4/K2HPO4 buffer containing 20 mM KCl, pH 7.0) to prevent differences in buffer composition and pH. Each titration consisted of 25 injections of a 2 μl peptide solution (280–400 μM) sequentially injected using a computer-controlled 50 μl syringe, into the calorimetric vessel (190 μl) containing the oligonucleotide (16–20 μM). A spacing of 300 s between each injection was applied to allow the system to reach the equilibrium. The heat generated by peptide dilution was assessed in a control experiment by injecting the peptide solution into the buffer (Supplementary Figure S30). All measurements were performed in triplicate. Subsequently, the interaction heat for each injection was calculated considering the correction for the heat of peptide dilution. The corrected heat values were plotted as a function of the molar ratio to provide binding isotherms. The isotherms were fitted with a multiple-sites binding model using the NanoAnalyze software (TA instruments) provided with the instrument. This analysis provided the equilibrium binding constant (Ka), binding enthalpy (ΔH°), and stoichiometry of interaction (n). The equilibrium dissociation constant (Kd), Gibbs free-energy change and entropy change were determined using the following relationships: Kd = 1/Ka, ΔG° = -RT ln Ka (R = 8.314 J mol^−1 K^−1, T = 298.15 K), and TΔS° = ΔH° – ΔG°.

FITC-Myb397-415 [4] = target: T1, FITC-Myb397-415 (UniProt P11938); assay: MST; settings: 2'-F-ANA-guanosine at bold G; positions lost in the text; 5 mM KH2PO4/K2HPO4 pH 7.0, 20 mM KCl (LiCl for c-MYC stock), 25 C; MST with 0.1% Tween and 5% DMSO, 20 nM FITC-peptide
T1 sequence: NHTGNSIRHRFRVYLSKRL

FITC-Myb397-415 [5] = target: T2, FITC-Myb397-415 (UniProt P11938 397-415); assay: microscale thermophoresis; 5 mM KH2PO4/K2HPO4, 20 mM KCl (c-MYC stock annealed in LiCl), pH 7.0; MST 25 C with 0.1% Tween, 5% DMSO, 20 nM labelled peptide, DNA titrated (stocks from 10 or 20 uM, mixed 1:1); ITC 25 C; settings: tags: N-terminal FITC-O2Oc, C-terminal NH2
T2 chain: {FITC-AEEA}-NHTGNSIRHRFRVYLSKRL-NH2

FITC-Myb397-415 [6] = target: T2, FITC-Myb397-415; assay: MST; 20 mM K+; 5 mM KH2PO4/K2HPO4 pH 7.0, 20 mM KCl (LiCl for c-MYC stock), 25 C; MST with 0.1% Tween and 5% DMSO, 20 nM FITC-peptide; settings: hybrid G4
Myb397-415 = target: T3, Myb397-415 (UniProt P11938 397-415); assay: isothermal titration calorimetry; 5 mM KH2PO4/K2HPO4, 20 mM KCl (c-MYC stock annealed in LiCl), pH 7.0; MST 25 C with 0.1% Tween, 5% DMSO, 20 nM labelled peptide, DNA titrated (stocks from 10 or 20 uM, mixed 1:1); ITC 25 C; settings: tags: N-acetyl; C-terminal NH2; chain copies: 3; parallel G4
T3 chain: NHTGNSIRHRFRVYLSKRL

AHTGNSIRHRFRVYLSKRL [Myb^A397]
ΔT1/2 of c-KIT2 G4 (c-KIT2 G4 [1]): 18.0 (±0.2) °C

Ac-NHTANSIRHRFRVYLSKRL-NH2 [Myb^A400]
Kd (c-KIT2 G4 [2]): ~170 nM
Impact on cancer cell viability, peptides in native form (U2OS cells; 72 h treatment): unable to significantly impact cancer cells viability
ΔT1/2 of c-KIT2 G4 (c-KIT2 G4 [1]): 21.1 (±0.4) °C
ΔΔT1/2, change in c-KIT2 G4-stabilizing properties with respect to Myb^397–415 (c-KIT2 G4 [1]): 3.8 °C
Ka (c-KIT2 G4 [3]): 7.3 (±1.3) ×10^6 M^−1
Kd (c-KIT2 G4 [3]): 137 nM

Ac-NHTGNSIRHRFRVYLAKRL-NH2 [Myb^A412]
Kd (c-KIT2 G4 [2]): ~130 nM
Impact on cancer cell viability, peptides in native form (U2OS cells; 72 h treatment): unable to significantly impact cancer cells viability
ΔT1/2 of c-KIT2 G4 (c-KIT2 G4 [1]): 23.3 (±0.2) °C
ΔΔT1/2, change in c-KIT2 G4-stabilizing properties with respect to Myb^397–415 (c-KIT2 G4 [1]): 6.0 °C
Ka (c-KIT2 G4 [3]): 5.3 (±0.8) ×10^6 M^−1
Kd (c-KIT2 G4 [3]): 187 nM

NATGNSIRHRFRVYLSKRL [Myb^A398]
ΔT1/2 of c-KIT2 G4 (c-KIT2 G4 [1]): 19.8 (±0.2) °C

NHAGNSIRHRFRVYLSKRL [Myb^A399]
ΔT1/2 of c-KIT2 G4 (c-KIT2 G4 [1]): 18.5 (±0.2) °C

NHTGASIRHRFRVYLSKRL [Myb^A401]
ΔT1/2 of c-KIT2 G4 (c-KIT2 G4 [1]): 19.7 (±0.2) °C

NHTGNAIRHRFRVYLSKRL [Myb^A402]
ΔT1/2 of c-KIT2 G4 (c-KIT2 G4 [1]): 18.5 (±0.2) °C

NHTGNSARHRFRVYLSKRL [Myb^A403]
ΔT1/2 of c-KIT2 G4 (c-KIT2 G4 [1]): 17.7 (±0.2) °C

NHTGNSIAHRFRVYLSKRL [Myb^A404]
ΔT1/2 of c-KIT2 G4 (c-KIT2 G4 [1]): 16.6 (±0.2) °C

NHTGNSIRARFRVYLSKRL [Myb^A405]
ΔT1/2 of c-KIT2 G4 (c-KIT2 G4 [1]): 16.0 (±0.2) °C

NHTGNSIRHAFRVYLSKRL [Myb^A406]
ΔT1/2 of c-KIT2 G4 (c-KIT2 G4 [1]): 12.1 (±0.3) °C

NHTGNSIRHRARVYLSKRL [Myb^A407]
ΔT1/2 of c-KIT2 G4 (c-KIT2 G4 [1]): 17.8 (±0.2) °C

NHTGNSIRHRFAVYLSKRL [Myb^A408]
ΔT1/2 of c-KIT2 G4 (c-KIT2 G4 [1]): 14.0 (±0.6) °C

NHTGNSIRHRFRAYLSKRL [Myb^A409]
ΔT1/2 of c-KIT2 G4 (c-KIT2 G4 [1]): 14.7 (±0.6) °C

NHTGNSIRHRFRVALSKRL [Myb^A410]
ΔT1/2 of c-KIT2 G4 (c-KIT2 G4 [1]): 13.6 (±0.2) °C

NHTGNSIRHRFRVYASKRL [Myb^A411]
ΔT1/2 of c-KIT2 G4 (c-KIT2 G4 [1]): 19.5 (±0.4) °C

NHTGNSIRHRFRVYLSARL [Myb^A413]
ΔT1/2 of c-KIT2 G4 (c-KIT2 G4 [1]): 10.7 (±0.6) °C

NHTGNSIRHRFRVYLSKAL [Myb^A414]
ΔT1/2 of c-KIT2 G4 (c-KIT2 G4 [1]): 10.7 (±0.6) °C

NHTGNSIRHRFRVYLSKRA [Myb^A415]
ΔT1/2 of c-KIT2 G4 (c-KIT2 G4 [1]): 17.8 (±0.5) °C

RRRRRRRW-GG-NHTGNSIRHRFRVYLAKRL [R7W-Myb^A412, Myb^A412 N-terminally conjugated to the cell-penetrating peptide R7W via a glycine–glycine spacer]
Inhibition of tumour cell growth compared with the other R7W-conjugated peptides (U2OS cells; 72 h, at the 5 μM concentration): slightly more effective than the others
Inhibition of tumour cell growth, R7W-conjugated peptides (U2OS cells; 72 h treatment): essentially to the same extent as R7W-Myb^397–415

RRWWRRWRR-GG-NHTGNSIRHRFRVYLSKRL [R6W3-Myb^397–415]
IC50 (U2OS cells; 72 h treatment, read-out: IC50 (concentration of drug capable of killing 50% of cells)): ~10000 nM

TAGGGTTAGGGTTAGGGTTAGGG [HT-FANA]
Kd (FITC-Myb397-415 [4]): 140 nM

GGGTACCCGGGTGAGGTGCGGGGT (structured_DNA) [VEGFR-17T]
binding result (FITC-Myb397-415 [5]; hybrid (mixed parallel/antiparallel) G4): no binding

TTGGGTTAGGGTTAGGGTTAGGGA (structured_DNA) [HT1]
Kd (FITC-Myb397-415 [5]; hybrid G4): 900 ± 140 nM
Kd (FITC-Myb397-415 [6]): 900 ± 140 nM

B1: ds12 (dsDNA)
DNA 1: CGCGAATTCGCG
DNA 2: CGCGAATTCGCG
binding result (FITC-Myb397-415 [5]; blunt, self-complementary): no binding

GGAGAAGGAGGAGGTGGAGGAGGAGGG (structured_DNA) [HER2]
Kd (FITC-Myb397-415 [5]; parallel G4): 130 ± 20 nM
Kd (Myb397-415): 100 ± 10 nM

GGGTTTGGGTTTTGGGAGGG (structured_DNA) [LWDLN1]
binding result (FITC-Myb397-415 [5]; antiparallel G4): no binding

TTAGGGTTAGGGTTAGGGTTAGGGTT (structured_DNA) [HT2]
Kd (FITC-Myb397-415 [5]; hybrid G4): 1180 ± 90 nM
Kd (FITC-Myb397-415 [6]): 1180 ± 90 nM

TCGGGTTGCGGGCGCAGGGCACGGGCG (structured_DNA) [HRAS1]
binding result (FITC-Myb397-415 [5]; antiparallel G4): no binding

AGGGAGGGCGCTGGGAGGAGGG (structured_DNA) [c-KIT1]
Kd (FITC-Myb397-415 [5]; parallel G4): 340 ± 44 nM

GGGCGCGGGAGGAATTGGGCGGG (structured_DNA) [BCL-2]
Kd (FITC-Myb397-415 [5]; hybrid G4): 280 ± 42 nM

TGAGGGTGGGTAGGGTGGGTAA (structured_DNA) [c-MYC]
Kd (FITC-Myb397-415 [5]; parallel G4): 430 ± 100 nM
